Source: patent publication US6858630B2, “Naphthimidazole derivatives and their use as thrombopoietin mimetics” (SmithKline Beecham Corporation, priority 1999, dated 2005)

Molecular target: T1, TPO receptor (Homo sapiens, UniProt P40238)
T1 construct: expressed in transfected cells; host or cells: murine BaF3 cells
T1 sequence (P40238 26-635): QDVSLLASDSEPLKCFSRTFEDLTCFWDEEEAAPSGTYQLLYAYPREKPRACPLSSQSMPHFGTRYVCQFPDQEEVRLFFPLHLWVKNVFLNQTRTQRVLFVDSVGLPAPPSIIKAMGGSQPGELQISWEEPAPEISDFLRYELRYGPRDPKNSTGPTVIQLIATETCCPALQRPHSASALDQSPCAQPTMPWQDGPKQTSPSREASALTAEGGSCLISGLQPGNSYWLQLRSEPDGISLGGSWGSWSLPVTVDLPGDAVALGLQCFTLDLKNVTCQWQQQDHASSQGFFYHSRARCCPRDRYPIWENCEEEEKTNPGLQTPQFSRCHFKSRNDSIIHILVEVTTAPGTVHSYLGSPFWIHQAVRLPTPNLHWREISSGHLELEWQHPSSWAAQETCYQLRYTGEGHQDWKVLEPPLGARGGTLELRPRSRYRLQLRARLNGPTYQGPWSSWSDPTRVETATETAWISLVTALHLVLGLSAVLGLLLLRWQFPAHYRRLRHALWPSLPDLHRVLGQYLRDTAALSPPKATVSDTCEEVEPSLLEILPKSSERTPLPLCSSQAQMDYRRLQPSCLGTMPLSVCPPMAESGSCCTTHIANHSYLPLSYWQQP
Test: Luciferase assay (TPO-responsive BaF3 cell line)
Format: cell-based, murine
Conditions: at a concentration of 2 uM; control is the maximal response to TPO
Procedure: Compounds of the present invention were tested for potency as mimetics of the TPO receptor in a Luciferase assay such as described in Lamb, et al., Nucleic Acids Research 23; 3283-3289 (1995) and Seidel, et al., Proc. Natl. Acad. Sci., USA 92: 3041-3045 (1995) by substituting a TPO-responsive BaF3 cell line (Vigon et al. Proc. Natl. Acad. Sci. USA 1992, 89, 5640-5644) for the HepG2 cells utilized therein. The murine BaF3 cells express TPO receptors and closely match the pattern of STAT (signal transducers and activators of transcription) activation observed in primary murine and human bone marrow cells.

Compound: COc1c(-c2ccc(C)cc2)cccc1-c1nc2c(ccc3cc(S(=O)(=O)O)cc(O)c32)[nH]1.Cl [Compound 14, 2-(3-[4′-Methylphenyl]-2-methoxyphenyl)-9-hydroxy-naphth[1,2-d]imidazole-7-sulfonic acid hydrochloride]
- activation, % of control in the luciferase assay: about 25%
